Results on six compounds are retold here after ChEMBL document CHEMBL1127007, “Quinazolinones 2: QSAR and in vivo characterization of AT1 selective AII antagonists” (Bioorg Med Chem Lett, 1993).

Assay [1] addresses T1, Type-2 angiotensin II receptor (Homo sapiens) (UniProt P50052).
T1 sequence (whole entry): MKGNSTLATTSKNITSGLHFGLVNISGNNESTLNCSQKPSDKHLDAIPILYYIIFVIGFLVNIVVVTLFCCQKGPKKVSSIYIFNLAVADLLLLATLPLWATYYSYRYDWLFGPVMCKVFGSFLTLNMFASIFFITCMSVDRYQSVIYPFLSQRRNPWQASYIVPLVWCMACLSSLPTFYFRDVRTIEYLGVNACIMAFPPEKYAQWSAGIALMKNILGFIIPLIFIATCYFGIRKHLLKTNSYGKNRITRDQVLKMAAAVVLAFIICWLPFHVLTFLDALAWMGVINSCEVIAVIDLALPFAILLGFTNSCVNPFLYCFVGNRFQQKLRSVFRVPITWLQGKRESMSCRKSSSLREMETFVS
The experiment in a line: In vitro antagonist activity against the Angiotensin II (type 2) receptor. Type of assay: functional.

Assay [2] addresses Angiotensin II receptor (Rattus norvegicus) (UniProt P29089+P25095+P35351). In words: Duration of action as time for pressor response to fall below 30% for a single bolus by intravenous dose. Type of assay: functional, organism-based.
Assay [3] relates to Rattus norvegicus. In words: In vivo for inhibition of the AII pressor response in normotensive rat at dose 0.3 mg/kg(iv) after 0.8 hour. Type of assay: functional.
The target in assay [4] is T2, Type-1 angiotensin II receptor (Oryctolagus cuniculus, UniProt P34976).
T2 sequence (P34976 whole entry): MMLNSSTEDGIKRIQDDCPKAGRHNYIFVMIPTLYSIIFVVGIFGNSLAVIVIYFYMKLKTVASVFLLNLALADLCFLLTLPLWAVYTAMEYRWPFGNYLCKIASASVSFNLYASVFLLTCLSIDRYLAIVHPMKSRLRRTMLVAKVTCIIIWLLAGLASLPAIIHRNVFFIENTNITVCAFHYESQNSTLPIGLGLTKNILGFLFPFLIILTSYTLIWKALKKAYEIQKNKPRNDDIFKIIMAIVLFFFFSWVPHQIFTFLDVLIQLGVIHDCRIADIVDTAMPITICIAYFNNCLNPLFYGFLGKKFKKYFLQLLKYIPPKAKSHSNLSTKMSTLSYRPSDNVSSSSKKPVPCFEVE
The experiment in a line: Ability to displace [125I]Sar1-Ile8-AII from angiotensin II receptor, type 1 in rabbit aorta in presence of 0.2% bovine serum albumin (BSA) was determined in vitro. Type of assay: tissue-based.

Assay [5] has as its system Rattus norvegicus. In words: The duration of action is expressed as the time for the % inhibition of pressor response to fall below 30% for a single bolus of the drug administered perorally. Format: functional.
Assay [6] relates to Rattus norvegicus. The experiment in a line: Compound was evaluated in vivo for inhibition of the AII pressor response in normotensive rat at dose 10 mg/kg, iv after 2.2 hour. Format: functional.
Assay [7] concerns Rattus norvegicus. The experiment in a line: Compound was evaluated in vivo for inhibition of the AII pressor response in normotensive rat at dose 3 mg/kg, iv after 0.9 hour. Format: functional.
For assay [8], the system named is Rattus norvegicus. In words: Compound was evaluated in vivo for inhibition of the AII pressor response in normotensive rat at dose 3 mg/kg, p.o. after 1.1 hour. Format: functional. The note with it: route oral.
In assay [9] the test system is Rattus norvegicus. In words: Compound was evaluated in vivo for inhibition of the AII pressor response in normotensive rat at dose 1 mg/kg, iv after 0.3 hour. Type of assay: functional.
The test system of assay [10] is Rattus norvegicus. The experiment in a line: Compound was evaluated in vivo for inhibition of the AII pressor response in normotensive rat at dose 1 mg/kg, iv after 0.9 hour. Format: functional.
Assay [11] concerns Rattus norvegicus. The experiment in a line: The duration of action is expressed as the time for the % inhibition of pressor response to fall below 30% for a single bolus of the drug administered intravenously. Format: functional.
In assay [12] the test system is Rattus norvegicus. In words: Compound was evaluated in vivo for inhibition of the AII pressor response in normotensive rat at dose 1 mg/kg, iv after 0.2 hour. Format: functional.
The subject of assay [13] is Rattus norvegicus. The experiment in a line: Compound was evaluated in vivo for inhibition of the AII pressor response in normotensive rat at dose 1 mg/kg, iv after 0.1 hour. Type of assay: functional.
Assay [14] deals with T2, Type-1 angiotensin II receptor. In words: Displacement of [125I]Sar1-Ile8-AII (without BSA) from type 1 Angiotensin II receptor of rabbit aorta. Type of assay: tissue-based.
In assay [15] the test system is Rattus norvegicus. The experiment in a line: Compound was evaluated in vivo for inhibition of the AII pressor response in normotensive rat at dose 0.3 mg/kg, iv after 3.5 hr. Format: functional.
In assay [16] the test system is Rattus norvegicus. The experiment in a line: Compound was evaluated in vivo for inhibition of the AII pressor response in normotensive rat at dose 0.3 mg/kg, iv after 6 hours. Format: functional.
Assay [17] concerns Rattus norvegicus. The experiment in a line: Compound was evaluated in vivo for inhibition of the AII pressor response in normotensive rat at dose 0.3 mg/kg, po. Type of assay: functional.

`CCCCc1nc2ccc(N(C)C(=O)N(C)C(C)C)cc2c(=O)n1Cc1ccc(-c2ccccc2-c2nn[nH]n2)cc1` registered an Activity in assay [1] greater than 1000 nM. In addition, the Duration in assay [2] turned out to be 0.8 h. The same compound showed an inhibition in vivo at 0.3 mg/kg in the assay on Rattus norvegicus [3] of 70%.

In [1], `CCCCc1nc2ccccc2c(=O)n1Cc1ccc(-c2ccccc2-c2nn[nH]n2)cc1` yielded an Activity greater than 1000 nM. In assay [4], the IC50 amounted to 6 nM. The compound further returned a Duration with Rattus norvegicus [5] of 1.1 h. Moreover, the inhibition in vivo at 10 mg/kg in the assay with Rattus norvegicus [6] was found to be 98%. For the same compound, the inhibition in vivo at 3 mg/kg was determined as 70% with Rattus norvegicus [7] and 54% in the assay on Rattus norvegicus [8]. Further, in the assay on Rattus norvegicus [9], the inhibition in vivo at 1 mg/kg was 40%.

Compound `CCCCc1nc2ccc(NC(C)=O)cc2c(=O)n1Cc1ccc(-c2ccccc2-c2nn[nH]n2)cc1` came in with an Activity in assay [1] greater than 1000 nM. The Duration in [2] amounted to 0.9 h. In the assay on Rattus norvegicus [10], this compound had an inhibition in vivo at 1 mg/kg of 97%.

As for `CCCCc1nc2ccc(OC)cc2c(=O)n1Cc1ccc(-c2ccccc2-c2nn[nH]n2)cc1`, the Activity in assay [1] is greater than 1000 nM. Also, in the assay on Rattus norvegicus [11], the Duration was 0.2 h. In the assay with Rattus norvegicus [12], this compound came in with an inhibition in vivo at 1 mg/kg of 49%.

On to `CCCCc1nc2ccc(SC)cc2c(=O)n1Cc1ccc(-c2ccccc2-c2nn[nH]n2)cc1`, for which the Activity in assay [1] was greater than 1000 nM. Also, the IC50 in assay [4] was 7 nM. In assay [2], this compound showed a Duration of 0.1 h. For the same compound, at 1 mg/kg the inhibition in vivo in the assay with Rattus norvegicus [13] was 44%.

Turning to `CCCCc1nc2ccc(NC(=O)NC(C)C)cc2c(=O)n1Cc1ccc(-c2ccccc2-c2nn[nH]n2)cc1`, the Activity in [1] was greater than 1000 nM. Also, the figures for the IC50 in assay [14] and in [4] were 0.5 nM and 0.75 nM, respectively. In addition, the figures for the Duration (in assay [2]; in the assay with Rattus norvegicus [5]) were greater than 6 h and 0 h, respectively. Besides, the inhibition in vivo at 0.3 mg/kg in the assay with Rattus norvegicus [15] was 86%; in the assay on Rattus norvegicus [16], 86%; in the assay with Rattus norvegicus [17], 0%.

One may read the inhibition in vivo as the drop in the measured response relative to a control, in per cent. Higher therefore signals a response far below the control. As a reminder, the IC50 is the concentration that inhibits the measured activity by half.
